In brackets after ≈: the same amount, converted by molar mass. One block for each molecule: values may come before it.
Tests used:
HSV-2, strain MS [1] = assay: Therapeutic guinea pig model of HSV infection (genital lesions); assay type: in vivo
Method: The in vivo assessment of anti-HSV efficacy was determined in the prophylactic guinea pig model of HSV infection described by Stanberry et al (1982) The Journal of Infectious Diseases-vol. 146, No. 3, pages 397-404, which is hereby incorporated by reference. Dosing of guinea pigs was comprised of an initial treatment with test compound given 24 hours prior to virus infection and subsequent administration of the compound every eight hours (T.I.D.) for a total of 10 days. Test compounds were administered subcutaneously in 0.5% buffered methyl cellulose at a dose of 60 mg per kg body weight of the animal. Animals were monitored daily for the development of genital lesions and neurological symptomology, both of which were recorded and compared to the results obtained with parallel groups which received placebo or acyclovir treatment. Efficacy was evaluated for each compound by scoring the ability of the compound to ameliorate genital lesions produced by infection with HSV-2, strain MS, expressed as Activity Coefficients. The Activity Coefficients. were calculated as follows: The ability of a test compound to ameliorate lesions was plotted graphically with the number of days being on one axis, and the number of lesions being on the other axis. The area under the resultant curve was put in the numerator of a fraction with the denominator either being the area under a similar curve where placebo was employed(EXP/PL), or the area under the curve where acyclovir was employed (EXP/ACV). Thus (Exp/PL) is the ratio of test compound to placebo. (Exp/ACV) is the ratio of test compound to acyclovir. […] In the therapeutic guinea pig model, dosing of guinea pigs started 24 hours after they were infected with the virus. Subsequent administration of the test compound was done every eight hours for a total of ten days. Activity coefficients were calculated in the same manner as described for the prophylactic guinea pig model above.

herpes virus [2] = settings: added to lidocaine or lidocaine hydrochloride; Haines et al.; cited from earlier work
HSV-2 = settings: U.S. Pat. No. 4,757,088; cited from earlier work
HSV = settings: according to Haines et al.; cited from earlier work
HSV-1 = settings: U.S. Pat. No. 4,757,088; cited from earlier work
herpes virus [3] = settings: U.S. Pat. No. 4,757,088; cited from earlier work
HSV-2, strain MS [4] = assay: Prophylactic guinea pig model of HSV infection (genital lesions); assay type: in vivo; settings: 60 mpk × 3/24 hr, sc
Method: The in vivo assessment of anti-HSV efficacy was determined in the prophylactic guinea pig model of HSV infection described by Stanberry et al (1982) The Journal of Infectious Diseases-vol. 146, No. 3, pages 397-404, which is hereby incorporated by reference. Dosing of guinea pigs was comprised of an initial treatment with test compound given 24 hours prior to virus infection and subsequent administration of the compound every eight hours (T.I.D.) for a total of 10 days. Test compounds were administered subcutaneously in 0.5% buffered methyl cellulose at a dose of 60 mg per kg body weight of the animal. Animals were monitored daily for the development of genital lesions and neurological symptomology, both of which were recorded and compared to the results obtained with parallel groups which received placebo or acyclovir treatment. Efficacy was evaluated for each compound by scoring the ability of the compound to ameliorate genital lesions produced by infection with HSV-2, strain MS, expressed as Activity Coefficients. The Activity Coefficients. were calculated as follows: The ability of a test compound to ameliorate lesions was plotted graphically with the number of days being on one axis, and the number of lesions being on the other axis. […]

[5] = Compound toxicity assay: inhibition of HeLa cell translation (^3 H-LEU assay); assay type: cell-based; settings: human; HeLa cells, overnight (24 hours) treatment, tritiated leucine incorporation; read-out: CYTOTOXICITY ^3 H--LEU ASSAY IC50
Method: HeLa cells were treated with inhibitory compound for 24 hours, after which levels of translational activity were assayed.
For assay of translational activity, HeLa cultures were grown to 80% confluency in 96 well microtiter plates, treated with appropriate concentrations of compound in 2% EMEM during an overnight incubation at 37° C., then rinsed with HBSS and overlaid with […] of 2% EMEM containing 8 uCi of tritiated leucine (^3 H-LEU, 141 Ci/mMol, Amersham Corp., Arlington Heights Ill.). After 1 hr incubation at 36.5° C., the cells were rinsed twice with phosphate buffered saline (PBS) and lysed in 400 ul/well of 1×PBS, 0.5% sodium dodecyl sulphate (SDS). After a 10 minute incubation at 36.5° C., the contents of the well were transferred to a well in a Millititer HA microfiltration plate (Millipore Corp., Bedford, MA). The TCA insoluble proteins were precipitated onto the filter disc by a 10 minute fixation with 5% TCA, followed by filtration under vacuum and three 10 minute rinses with 95% ethanol. The filters were dried at room temperature, cut from the milltitier plate and transferred to scintillation vials. TCA precipitable counts were assayed in 5 ml of Scintisol (Isolab, Akron, Ohio). The inhibitory activity of a compound was plotted versus the concentration and an IC50 value (that concentration of the compound required to decrease cellular translational activity by 50%) was derived for each compound.

HSV-2 (strain MS) = assay: Transient expression of beta galactosidase in transfected HeLa cells superinfected with HSV-2 (HSV-β-GAL assay); assay type: cell-based; settings: Human alphaherpesvirus 2, plasmid pON 245^ori-, moi=5 pfu/cell, 24 hours, read-out: ANTI-HSV ACTIVITY HSV-β-GAL ASSAY IC50
Method: HeLa and Vero cell cultures were maintained in Eagles Minimal Essential Medium (EMEM) which was supplemented with glutamine, penicillin, streptomycin and 10% fetal calf serum (10% EMEM). Stock cultures of HSV-2 (strain MS available from ATCC VR-540) were grown in and harvested from Vero cells. Viral stocks were titered in Vero cells according to established procedures.
Plasmid pON 245^ori- contains the promoter of the HSV-1 thymidine kinase (tk) gene located immediately 5' of the E. coli lac Z gene. In this arrangement, the tk promoter controls transcription from the bacterial gene in transient expression assays. Additionally, an SV40 polyadenylation signal is present at the 3' end of the lac Z gene to allow for the efficient translation of the mRNA in eucaryotic cells. The expression of beta galactosidase in a transient assay using pON 245^ori- is dependent upon superinfection of the transfected cells with HSV. […] For example see U.S. application Ser. No. 07/435,491 filed Sep. 5, 1989, the disclosure of which is incorporated herein by reference thereto.
HeLa cells were seeded into 96 well microtiter plates and allowed to grow to 80% confluency (approximately 35,000 cells/well). One half microgram of plasmid pON 245^ori- DNA was introduced into the cells of each well by the […] precipitation technique (Grahman and Van der Eb, 1973). Four to six hours later, the cells were rinsed with hank's Balanced Salt Solution (HBSS), overlaid with 10% EMEM and incubated at 37° C. At 24 hrs post-transfection, cells were rinsed, overlaid with 10% EMEM again and re-incubated at 37° C. At 48 hrs post-transfection, cells were rinsed and overlaid with either EMEM containing 2% fetal calf serum (2% EMEM), 2% EMEM containing HSV-2 (strain MS, Multiplicity of Infection [moi]=5 pfu/cell) or 2% EMEM containing HSV-2 and the appropriate concentration of Schering compound to be tested. Twenty-four hours later, the cells were harvested and assayed for beta galactosidase activity as described below.
All determinations of beta galactosidase activity were performed in 96 well microtiter plates. The intracellular level of beta galactosidase activity in each well was determined from cell lysates of the monolayer cultures. Aliquots were assayed by incubation in the presence of beta galactosidase substrate, 4-methylumbelliferyl-β-D-galactoside (MUG, 125 ug/ml, Sigma), for 2 hours. The generation of fluorescent product was quantified on a Microfluor microfluorimeter (Dynatech) after addition of 0.1M glycine, pH 10.3 (Spaete and Mocarski, 1985). The inhibitory activity of a compound was plotted versus the concentration and an IC50 value (the concentration of compound required to reduce beta glactosidase expression by 50%) was obtained for each compound tested.

Structure (SMILES): Nc1nc2c(ncn2COCCO)c(=O)[nH]1 [ACV, 9-[(2-hydroxyethoxy)methyl]guanine, reference compound]
- efficacy of acyclovir in the therapeutic study (HSV-2, strain MS [1]; therapeutic study with Example 45): not efficaceous

Structure (SMILES): CC(C)(CO)[C@@H](O)C(=O)NCCCO [dexpanthenol]
- enhancement of antiviral activity (herpes virus [2]): significantly enhances the antiviral activity

Structure (SMILES): CCN(CC)CC(=O)Nc1c(C)cccc1C [lidocaine, 2-(diethylamino)-N-(2,6-dimethylphenyl)acetamide]
- antiviral activity in cell culture against HSV-2 (HSV-2): antiviral agent in cell culture against HSV-1 and HSV-2
- treatment of HSV oral and genital lesions in humans (HSV): particularly effective
- antiviral activity in cell culture against HSV-1 (HSV-1): antiviral agent in cell culture against HSV-1 and HSV-2
- ability to treat herpes virus infections of mammals (herpes virus [3]): able to treat herpes virus infections of mammals

- IC50 (HSV-2 (strain MS)): 5 µg/mL (≈ 13.6 µM)
Structure (SMILES): O=C1C(=CNCc2ccccc2)C(=O)N(Cc2ccccc2)c2ccccc21 [EX. 23, (E,Z)1-Benzyl-3-Benzylaminomethylene-Quinolin-2,4(1H)-Dione]
- Activity Coefficient (Exp/ACV) (HSV-2, strain MS [4]; lesion score AUC days 1-10, ratio test compound to acyclovir): 4.05 ± 2.21
- Activity Coefficient (Exp/PL) (HSV-2, strain MS [4]; lesion score AUC days 1-10, ratio test compound to placebo): 0.67 ± 0.03
- CC50 at 24 h [5]: > 100 µg/mL

- IC50 (HSV-2 (strain MS)): 4 µg/mL (≈ 10.7 µM)
Structure (SMILES): O=C1C(=CNCc2ccccc2)C(=O)N(Cc2ccccc2)c2ccsc21 [EX. 45, (E,Z) 4-benzyl-6-benzylaminomethylene-thieno[3,2-b]pyridine-5,7(4H,6H)-dione]
- CC50 at 24 h [5]: 40 µg/mL (≈ 107 µM)
- Activity Coefficient (Exp/PL) (HSV-2, strain MS [1]; 30 mpk × 3/24 hr, sc, therapeutic, lesion score AUC days 1-10, ratio test compound to placebo): 0.71
- Activity Coefficient (Exp/ACV) (HSV-2, strain MS [1]; 30 mpk × 3/24 hr, sc, therapeutic, lesion score AUC days 1-10, ratio to acyclovir, ACV was not efficaceous in this study): 0.93

Structure (SMILES): CC(C)(CO)[C@@H](O)C(=O)NCCC(=O)O [pantothenic acid]
- enhancement of antiviral activity (herpes virus [2]): significantly enhances the antiviral activity

From patent US5179093A, “Quinoline-diones” (Schering Corporation, priority 1991, dated 1993)
